Measured values: US7563592B2, “Alizarin-based chromogenic substrates, their uses and composition containing same” (Biomerieux, S.A., priority 1999, dated 2009)

Legend:
Escherichia coli 115 = test: β-galactosidase detection in semi-solid Columbia medium (Example 1); type: cell-based
Serratia marcescens 042 = test: as above; type: cell-based
Acinetobacter spp. = test: β-galactosidase detection on semi-solid medium, clinical and environmental strains (Example 2); type: cell-based; conditions: 50 mg/l + iron citrate 500 mg/l; 18 hours; 53 strains tested
Aeromonas hydrophila = test: as above; type: cell-based; conditions: 50 mg/l + iron citrate 500 mg/l; 18 hours; 3 strains tested
Citrobacter diversus = test: as above; type: cell-based; conditions: 50 mg/l + iron citrate 500 mg/l; 18 hours; 9 strains tested
Citrobacter freundii = test: as above; type: cell-based; conditions: 50 mg/l + iron citrate 500 mg/l; 18 hours; 16 strains tested
Escherichia hermannii = test: as above; type: cell-based; conditions: 50 mg/l + iron citrate 500 mg/l; 18 hours; 1 strain tested
Klebsiella ozaenae = test: as above; type: cell-based; conditions: 50 mg/l + iron citrate 500 mg/l; 18 hours; 3 strains tested
Morganella morganii = test: as above; type: cell-based; conditions: 50 mg/l + iron citrate 500 mg/l; 18 hours; 12 strains tested
Proteus penneri = test: as above; type: cell-based; conditions: 50 mg/l + iron citrate 500 mg/l; 18 hours; 1 strain tested
Proteus vulgaris = test: as above; type: cell-based; conditions: 50 mg/l + iron citrate 500 mg/l; 18 hours; 4 strains tested
Providencia rettgeri = test: as above; type: cell-based; conditions: 50 mg/l + iron citrate 500 mg/l; 18 hours; 3 strains tested
Providencia stuartii = test: as above; type: cell-based; conditions: 50 mg/l + iron citrate 500 mg/l; 18 hours; 10 strains tested
Shigella dysenteriae = type: cell-based; conditions: 50 mg/l + iron citrate 500 mg/l; 18 hours; 2 strains tested
Shigella sonnei = test: β-galactosidase detection on semi-solid medium, clinical and environmental strains (Example 2); type: cell-based; conditions: 50 mg/l + iron citrate 500 mg/l; 18 hours; 10 strains tested
Vibrio cholerae = type: cell-based; conditions: 50 mg/l + iron citrate 500 mg/l; 18 hours; 1 strain tested
[1] = tested on: β-galactosidase (EC 3.2.1.23 Sigma); test: Effect of pH on β-D-galactosidase detection, substrate 0.05 g/l in water (Example 4); type: biochemical
Protocol: To each of eighteen tubes containing 5 ml of osmotically purified water, the following were added Alizarin-2-β-D-galactoside (0.05 g/l) and 5 μl of β-galactosidase (EC 3.2.1.23 Sigma). Ammoniacal iron citrate (0.05 g/l) was added to half of these tubes. […] Finally, the pH of these tubes was adjusted to different values (2-3-4-5-6-7-8-9-10) at 24° C.

[2] = tested on: Enterococcus faecalis 117; test: Comparison of glucoside substrates in semi-solid Columbia medium (Example 7); type: cell-based; conditions: 0.05 g/l + iron citrate 0.05 g/l
eight (8) species tested = test: β-glucosidase detection in API strip wells, all species together (Example 6); type: cell-based; conditions: of the eight (8) species tested; 0.12 g/l + iron citrate 0.05 g/l
[3] = tested on: Listeria monocytogenes 022; test: β-glucosidase detection in API strip wells (Example 6); conditions: 0.12 g/l + iron citrate 0.05 g/l
[4] = tested on: Klebsiella pneumoniae 023; test: as above; conditions: 0.12 g/l + iron citrate 0.05 g/l

Q: `O=C1c2ccccc2C(=O)c2c1ccc(O[C@@H]1O[C@H](CO)[C@H](O)[C@H](O)[C@H]1O)c2O` [Alizarin-2-β-D-galactoside] was tested. Which Color (Escherichia coli 115; 0.01 g/l + iron citrate, 18 H) did it give?
A: purple

Q: And the Intensity (Escherichia coli 115; 0.01 g/l + iron citrate, 18 H)?
A: 0.3

Q: What about the Color (Escherichia coli 115; 0.01 g/l + iron citrate, 24 H) of the same compound?
A: purple

Q: What about the Intensity (Escherichia coli 115; 0.01 g/l + iron citrate, 24 H) of the same compound?
A: 0.3

Q: What about the Color (Escherichia coli 115; 0.01 g/l + iron citrate, 48 H) of the same compound?
A: purple

Q: What about the Intensity (Escherichia coli 115; 0.01 g/l + iron citrate, 48 H) of the same compound?
A: 0.5

Q: What about the Color (Escherichia coli 115; 0.03 g/l + iron citrate, 18 H) of the same compound?
A: purple

Q: What about the Intensity (Escherichia coli 115; 0.03 g/l + iron citrate, 18 H) of the same compound?
A: 2.7

Q: And the Color (Escherichia coli 115; 0.03 g/l + iron citrate, 24 H)?
A: purple

Q: What about the Intensity (Escherichia coli 115; 0.03 g/l + iron citrate, 24 H) of the same compound?
A: 2.7

Q: What about the Color (Escherichia coli 115; 0.03 g/l + iron citrate, 48 H) of the same compound?
A: purple

Q: What about the Intensity (Escherichia coli 115; 0.03 g/l + iron citrate, 48 H) of the same compound?
A: 3

Q: And the Color (Escherichia coli 115; 0.05 g/l + iron citrate, 18 H)?
A: purple

Q: And the Intensity (Escherichia coli 115; 0.05 g/l + iron citrate, 18 H)?
A: 3.5

Q: And the Color (Escherichia coli 115; 0.05 g/l + iron citrate, 24 H)?
A: purple

Q: What about the Intensity (Escherichia coli 115; 0.05 g/l + iron citrate, 24 H) of the same compound?
A: 3.5

Q: What about the Color (Escherichia coli 115; 0.05 g/l + iron citrate, 48 H) of the same compound?
A: purple

Q: And the Intensity (Escherichia coli 115; 0.05 g/l + iron citrate, 48 H)?
A: 3.5

Q: And the Color (Escherichia coli 115; 0.08 g/l + iron citrate, 18 H)?
A: purple

Q: And the Intensity (Escherichia coli 115; 0.08 g/l + iron citrate, 18 H)?
A: 4

Q: And the Color (Escherichia coli 115; 0.08 g/l + iron citrate, 24 H)?
A: purple

Q: And the Intensity (Escherichia coli 115; 0.08 g/l + iron citrate, 24 H)?
A: 4

Q: And the Color (Escherichia coli 115; 0.08 g/l + iron citrate, 48 H)?
A: purple

Q: And the Intensity (Escherichia coli 115; 0.08 g/l + iron citrate, 48 H)?
A: 4

Q: What about the Color (Serratia marcescens 042; 0.01 g/l + iron citrate, 48 H) of the same compound?
A: purple

Q: What about the Intensity (Serratia marcescens 042; 0.01 g/l + iron citrate, 48 H) of the same compound?
A: 0.3

Q: What about the Color (Serratia marcescens 042; 0.03 g/l + iron citrate, 18 H) of the same compound?
A: purple

Q: And the Intensity (Serratia marcescens 042; 0.03 g/l + iron citrate, 18 H)?
A: 0.5

Q: And the Color (Serratia marcescens 042; 0.03 g/l + iron citrate, 24 H)?
A: purple

Q: What about the Intensity (Serratia marcescens 042; 0.03 g/l + iron citrate, 24 H) of the same compound?
A: 1

Q: What about the Color (Serratia marcescens 042; 0.03 g/l + iron citrate, 48 H) of the same compound?
A: purple

Q: And the Intensity (Serratia marcescens 042; 0.03 g/l + iron citrate, 48 H)?
A: 1.7

Q: What about the Color (Serratia marcescens 042; 0.05 g/l + iron citrate, 18 H) of the same compound?
A: purple

Q: And the Intensity (Serratia marcescens 042; 0.05 g/l + iron citrate, 18 H)?
A: 1

Q: And the Color (Serratia marcescens 042; 0.05 g/l + iron citrate, 24 H)?
A: purple

Q: What about the Intensity (Serratia marcescens 042; 0.05 g/l + iron citrate, 24 H) of the same compound?
A: 2.5

Q: What about the Color (Serratia marcescens 042; 0.05 g/l + iron citrate, 48 H) of the same compound?
A: purple

Q: What about the Intensity (Serratia marcescens 042; 0.05 g/l + iron citrate, 48 H) of the same compound?
A: 3

Q: What about the Color (Serratia marcescens 042; 0.08 g/l + iron citrate, 18 H) of the same compound?
A: purple

Q: What about the Intensity (Serratia marcescens 042; 0.08 g/l + iron citrate, 18 H) of the same compound?
A: 2

Q: What about the Color (Serratia marcescens 042; 0.08 g/l + iron citrate, 24 H) of the same compound?
A: purple

Q: And the Intensity (Serratia marcescens 042; 0.08 g/l + iron citrate, 24 H)?
A: 2.5

Q: And the Color (Serratia marcescens 042; 0.08 g/l + iron citrate, 48 H)?
A: purple

Q: What about the Intensity (Serratia marcescens 042; 0.08 g/l + iron citrate, 48 H) of the same compound?
A: 3.5

Q: And the “percentage of positive strains” value (Acinetobacter spp.)?
A: 0%

Q: What about the “percentage of positive strains” value (Aeromonas hydrophila) of the same compound?
A: 100%

Q: What about the “percentage of positive strains” value (Citrobacter diversus) of the same compound?
A: 89%

Q: What about the “percentage of positive strains” value (Citrobacter freundii) of the same compound?
A: 100%

Q: And the “percentage of positive strains” value (Escherichia hermannii)?
A: 100%

Q: And the “percentage of positive strains” value (Klebsiella ozaenae)?
A: 100%

Q: What about the “percentage of positive strains” value (Morganella morganii) of the same compound?
A: 0%

Q: And the “percentage of positive strains” value (Proteus penneri)?
A: 0%

Q: And the “percentage of positive strains” value (Proteus vulgaris)?
A: 0%

Q: What about the “percentage of positive strains” value (Providencia rettgeri) of the same compound?
A: 0%

Q: And the “percentage of positive strains” value (Providencia stuartii)?
A: 0%

Q: What about the “percentage of positive strains” value (Shigella dysenteriae) of the same compound?
A: 0%

Q: And the “percentage of positive strains” value (Shigella sonnei)?
A: 100%

Q: What about the “percentage of positive strains” value (Vibrio cholerae) of the same compound?
A: 100%

Q: What about the “color of the tubes after incubation, before pH adjustment” value ([1]; 4 hours at 37° C., no Ammoniacal iron citrate) of the same compound?
A: light pink

Q: And the “pink coloration of the tubes after incubation, before pH adjustment” value ([1]; 4 hours at 37° C., with Ammoniacal iron citrate 0.05 g/l, versus tubes without)?
A: more intense

Q: What about the Color ([1]; pH 2, no iron) of the same compound?
A: Yellow

Q: And the Color ([1]; pH 2, with iron (Ammoniacal iron citrate 0.05 g/l))?
A: Yellow

Q: And the Color ([1]; pH 3, no iron)?
A: Yellow

Q: What about the Color ([1]; pH 3, with iron (Ammoniacal iron citrate 0.05 g/l)) of the same compound?
A: Yellow

Q: And the Color ([1]; pH 4, no iron)?
A: Yellow

Q: What about the Color ([1]; pH 4, with iron (Ammoniacal iron citrate 0.05 g/l)) of the same compound?
A: Yellow

Q: What about the Color ([1]; pH 5, no iron) of the same compound?
A: Yellow-Orange

Q: And the Color ([1]; pH 5, with iron (Ammoniacal iron citrate 0.05 g/l))?
A: Yellow-Pink

Q: And the Color ([1]; pH 6, no iron)?
A: Pink-Orange

Q: What about the Color ([1]; pH 6, with iron (Ammoniacal iron citrate 0.05 g/l)) of the same compound?
A: Pink

Q: What about the Color ([1]; pH 7, no iron) of the same compound?
A: Pink-Orange

Q: And the Color ([1]; pH 7, with iron (Ammoniacal iron citrate 0.05 g/l))?
A: Pink

Q: And the Color ([1]; pH 8, no iron)?
A: Pink

Q: What about the Color ([1]; pH 8, with iron (Ammoniacal iron citrate 0.05 g/l)) of the same compound?
A: Purple

Q: What about the Color ([1]; pH 9, no iron) of the same compound?
A: Purple

Q: What about the Color ([1]; pH 9, with iron (Ammoniacal iron citrate 0.05 g/l)) of the same compound?
A: Purple

Q: And the Color ([1]; pH 10, no iron)?
A: Mauve

Q: And the Color ([1]; pH 10, with iron (Ammoniacal iron citrate 0.05 g/l))?
A: Mauve

Q: With `O=C1c2ccccc2C(=O)c2c1ccc(O[C@@H]1O[C@H](CO)[C@@H](O)[C@H](O)[C@H]1O)c2O` [Alizarin-2-β-D-glucoside] as the compound, how does the Color ([2]; 18 H) read?
A: Purple

Q: What about the Intensity ([2]; 18 H) of the same compound?
A: 3.5 arbitrary units

Q: And the Color ([2]; 24 H)?
A: Purple

Q: What about the Intensity ([2]; 24 H) of the same compound?
A: 4 arbitrary units

Q: And the Color ([2]; 48 H)?
A: Purple

Q: What about the Intensity ([2]; 48 H) of the same compound?
A: 4 arbitrary units

Q: And the “species in which activity was detected” value (eight (8) species tested)?
A: 7 species

Q: And the Color observed ([3]; 4 H)?
A: Purple

Q: What about the Color observed ([3]; 24 H) of the same compound?
A: Purple

Q: What about the Color observed ([4]; 4 H) of the same compound?
A: Purple

Q: And the Color observed ([4]; 24 H)?
A: Purple
